# US8148388B2, “2,4 (4,6) pyrimidine derivatives” (Janssen Pharmaceutica, N.V., priority 2004, dated 2012)
# Read-outs that look alike come from different tables or passages of the source.
# What was measured:
# CSK (h) = CSK (h) (Homo sapiens, UniProt P41240); assay: CSK human kinase assay (glass-fiber filter); type: biochemical; conditions: test concentration of 10^−6M; read-out: C2 score (inhibition of CSK human)
# Method: In the glass-fiber filter technology the activity of the kinase of interest is measured using an appropriate substrate that is incubated with the aforementioned kinase protein in the presence of (^33P) radiolabeled ATP. (^33P) Phosphorylation of the substrate is subsequently measured as radioactivity bound on a glass fiber-filter.
# All kinases are pre-diluted to a 10× working concentration prior to addition into the assay. The composition of the dilution buffer for each kinase is detailed below.
# In a final reaction volume of 25 μl, CSK (h) (5-10 mU) is incubated with 50 mM Tris pH 7.5, 0.1 mM EGTA, 0.1 mM Na3VO4, 0.1% β-mercaptoethanol, 0.1 mg/ml poly(Glu, Tyr) 4:1, 10 mM MnCl2, 10 mM MgAcetate and [γ-^33P-ATP] (specific activity approx. 500 cpm/pmol, concentration as required). The reaction is initiated by the addition of the MgATP mix. After incubation for 40 minutes at room temperature, the reaction is stopped by the addition of 5 μl of a 3% phosphoric acid solution. 10 μl of the reaction is then spotted onto a Filtermat A and washed three times for 5 minutes in 75 mM phosphoric acid and once in methanol prior to drying and scintillation counting.
# Fes (h) = Fes (h) (Homo sapiens, UniProt P07332); assay: Fes human kinase assay (glass-fiber filter); type: biochemical; conditions: test concentration of 10^−6M; read-out: C4 score (inhibition of Fes human)
# Summary of the method: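 Human Fes (5–10 mU) was incubated with 0.1 mg/ml poly(Glu,Tyr) 4:1 in 8 mM MOPS pH 7.0, 0.2 mM EDTA, 10 mM Mg acetate and [γ-33P]ATP for 40 min at room temperature. The reaction was stopped with phosphoric acid, and substrate phosphorylation was quantified by filter binding and scintillation counting.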
# Lck (h) = Lck (h) (Homo sapiens, UniProt P06239); assay: Lck human kinase assay (glass-fiber filter); type: biochemical; conditions: test concentration of 10^−6M; read-out: C9 score (inhibition of Lck human)
# Sequence of Lck (h) (P06239 whole entry): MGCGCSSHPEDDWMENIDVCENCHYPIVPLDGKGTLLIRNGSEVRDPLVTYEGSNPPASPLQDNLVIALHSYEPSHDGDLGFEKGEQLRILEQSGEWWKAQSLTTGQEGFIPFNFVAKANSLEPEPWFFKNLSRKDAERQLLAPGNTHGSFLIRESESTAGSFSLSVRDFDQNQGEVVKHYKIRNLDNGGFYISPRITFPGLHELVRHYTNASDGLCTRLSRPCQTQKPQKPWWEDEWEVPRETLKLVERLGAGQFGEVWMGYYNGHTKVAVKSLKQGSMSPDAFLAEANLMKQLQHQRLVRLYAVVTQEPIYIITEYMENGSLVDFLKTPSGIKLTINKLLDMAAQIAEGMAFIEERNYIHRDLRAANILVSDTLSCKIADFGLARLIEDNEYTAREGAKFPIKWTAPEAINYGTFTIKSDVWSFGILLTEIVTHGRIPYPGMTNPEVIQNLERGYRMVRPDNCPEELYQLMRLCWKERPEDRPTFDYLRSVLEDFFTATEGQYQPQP
# Summary of the method: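 Kinase activity measured as transfer of (^33P) from radiolabeled MgATP to substrate, captured on P30 glass-fiber filtermat, washed in 75 mM phosphoric acid and methanol, then scintillation counted.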
# cSRC (h) = cSRC (h) (Homo sapiens, UniProt P12931); assay: cSRC human kinase assay (glass-fiber filter); type: biochemical; conditions: test concentration of 10^−6M; read-out: C3 score (inhibition of cSRC human)
# Sequence of cSRC (h) (P12931 whole entry): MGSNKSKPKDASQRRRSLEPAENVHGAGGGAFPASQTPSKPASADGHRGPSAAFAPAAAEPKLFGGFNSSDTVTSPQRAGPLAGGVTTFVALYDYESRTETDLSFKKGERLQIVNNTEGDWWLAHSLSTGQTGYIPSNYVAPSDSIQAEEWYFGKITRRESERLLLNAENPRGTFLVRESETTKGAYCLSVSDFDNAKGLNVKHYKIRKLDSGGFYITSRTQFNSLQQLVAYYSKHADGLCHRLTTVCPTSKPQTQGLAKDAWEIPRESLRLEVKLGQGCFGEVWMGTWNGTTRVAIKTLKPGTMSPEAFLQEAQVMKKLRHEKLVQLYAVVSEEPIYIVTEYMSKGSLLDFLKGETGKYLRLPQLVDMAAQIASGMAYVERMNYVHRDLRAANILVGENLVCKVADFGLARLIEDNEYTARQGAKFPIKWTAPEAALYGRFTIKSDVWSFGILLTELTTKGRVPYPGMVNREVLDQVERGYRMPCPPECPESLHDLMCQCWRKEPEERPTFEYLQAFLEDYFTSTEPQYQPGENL
# Summary of the method: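 Radiometric assay: kinase and substrate are incubated with [33P]ATP, with the reaction started by MgATP mix. The reaction is spotted on P30 filtermat, washed in 75 mM phosphoric acid and methanol, and the bound 33P is measured by scintillation counting.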
# Fms (h) = Fms (h) (Homo sapiens, UniProt P07333); assay: Fms human kinase assay (glass-fiber filter); type: biochemical; conditions: test concentration of 10^−6M; read-out: C7 score (inhibition of Fms human)
# Sequence of Fms (h) (P07333 20-972): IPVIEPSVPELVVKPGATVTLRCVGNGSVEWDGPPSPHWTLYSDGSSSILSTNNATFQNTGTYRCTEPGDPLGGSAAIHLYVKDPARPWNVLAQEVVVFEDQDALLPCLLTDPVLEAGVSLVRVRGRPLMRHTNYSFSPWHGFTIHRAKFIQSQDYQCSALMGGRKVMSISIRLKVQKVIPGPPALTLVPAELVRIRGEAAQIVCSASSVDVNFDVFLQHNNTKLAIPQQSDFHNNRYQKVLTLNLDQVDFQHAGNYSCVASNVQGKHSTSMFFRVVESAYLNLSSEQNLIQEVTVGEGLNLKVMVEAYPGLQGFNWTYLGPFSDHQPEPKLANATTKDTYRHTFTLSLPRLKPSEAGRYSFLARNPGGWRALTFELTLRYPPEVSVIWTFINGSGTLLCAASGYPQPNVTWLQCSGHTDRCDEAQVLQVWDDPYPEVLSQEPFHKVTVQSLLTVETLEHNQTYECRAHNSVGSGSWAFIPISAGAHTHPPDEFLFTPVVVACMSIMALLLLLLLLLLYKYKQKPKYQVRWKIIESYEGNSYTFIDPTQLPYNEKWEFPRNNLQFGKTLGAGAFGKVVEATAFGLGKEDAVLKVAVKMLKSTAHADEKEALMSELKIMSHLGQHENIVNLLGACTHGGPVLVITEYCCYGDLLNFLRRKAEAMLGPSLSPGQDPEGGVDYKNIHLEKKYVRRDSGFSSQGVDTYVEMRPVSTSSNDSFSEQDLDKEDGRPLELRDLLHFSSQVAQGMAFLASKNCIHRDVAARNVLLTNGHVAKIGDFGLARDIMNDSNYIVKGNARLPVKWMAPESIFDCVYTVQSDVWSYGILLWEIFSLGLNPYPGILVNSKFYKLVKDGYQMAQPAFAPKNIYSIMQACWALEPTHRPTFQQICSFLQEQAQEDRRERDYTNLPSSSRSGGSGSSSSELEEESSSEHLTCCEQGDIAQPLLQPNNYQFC
# Summary of the method: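 Radiometric filter-binding assay: Fms (5-10 mU) with 250 μM peptide substrate and [γ-33P]ATP in 8 mM MOPS pH 7.0, 10 mM Mg acetate, 40 min at room temperature. Reaction stopped with phosphoric acid; substrate-bound 33P counted on P30 filtermat.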
# Yes (h) = Yes (h) (Homo sapiens, UniProt P07947); assay: Yes human kinase assay (glass-fiber filter); type: biochemical; conditions: test concentration of 10^−6M; read-out: C11 score (inhibition of Yes human)
# Sequence of Yes (h) (P07947 whole entry): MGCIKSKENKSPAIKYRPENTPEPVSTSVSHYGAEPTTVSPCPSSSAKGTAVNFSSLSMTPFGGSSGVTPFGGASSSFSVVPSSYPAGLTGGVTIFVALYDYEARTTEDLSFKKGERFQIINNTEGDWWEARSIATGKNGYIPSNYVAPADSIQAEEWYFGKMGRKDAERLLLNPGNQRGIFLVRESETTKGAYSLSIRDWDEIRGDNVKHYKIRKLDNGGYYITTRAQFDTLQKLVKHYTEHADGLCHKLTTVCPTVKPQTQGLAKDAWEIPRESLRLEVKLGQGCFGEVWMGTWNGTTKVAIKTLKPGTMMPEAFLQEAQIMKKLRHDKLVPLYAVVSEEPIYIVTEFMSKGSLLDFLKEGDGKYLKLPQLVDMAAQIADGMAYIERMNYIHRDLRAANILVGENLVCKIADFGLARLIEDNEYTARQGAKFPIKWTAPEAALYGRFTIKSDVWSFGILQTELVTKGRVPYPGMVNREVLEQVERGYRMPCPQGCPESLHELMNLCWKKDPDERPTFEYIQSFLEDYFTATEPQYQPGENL
# Summary of the method: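 Yes (h) (5-10 mU) with 0.1 mg/ml poly(Glu, Tyr) 4:1 in 8 mM MOPS pH 7.0, 0.2 mM EDTA, 10 mM MgAcetate and [γ-^33P-ATP], 40 minutes at room temperature. Stopped with phosphoric acid; substrate-bound ^33P counted on glass-fiber filter by scintillation.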
# [1] = amide bond, DMF, 25.0 °C
# Flt3 (h) = Flt3 (h) (Homo sapiens, UniProt P36888); assay: Flt3 human kinase assay (glass-fiber filter); type: biochemical; conditions: test concentration of 10^−6M; read-out: C6 score (inhibition of Flt3 human)
# Summary of the method: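 Human Flt3 (5-10 mU) with 50 μM peptide substrate in 8 mM MOPS pH 7.0, 0.2 mM EDTA, 10 mM Mg acetate and [γ-33P]ATP (concentration as required), 40 min at room temperature. Reaction stopped with phosphoric acid; substrate 33P incorporation counted on P30 glass-fiber filter.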
# Abl (h) = Abl (h) (Homo sapiens, UniProt P00519); assay: Abl human kinase assay (glass-fiber filter); type: biochemical; conditions: test concentration of 10^−6M; read-out: C1 score (inhibition of Abl human)
# Sequence of Abl (h) (P00519 whole entry): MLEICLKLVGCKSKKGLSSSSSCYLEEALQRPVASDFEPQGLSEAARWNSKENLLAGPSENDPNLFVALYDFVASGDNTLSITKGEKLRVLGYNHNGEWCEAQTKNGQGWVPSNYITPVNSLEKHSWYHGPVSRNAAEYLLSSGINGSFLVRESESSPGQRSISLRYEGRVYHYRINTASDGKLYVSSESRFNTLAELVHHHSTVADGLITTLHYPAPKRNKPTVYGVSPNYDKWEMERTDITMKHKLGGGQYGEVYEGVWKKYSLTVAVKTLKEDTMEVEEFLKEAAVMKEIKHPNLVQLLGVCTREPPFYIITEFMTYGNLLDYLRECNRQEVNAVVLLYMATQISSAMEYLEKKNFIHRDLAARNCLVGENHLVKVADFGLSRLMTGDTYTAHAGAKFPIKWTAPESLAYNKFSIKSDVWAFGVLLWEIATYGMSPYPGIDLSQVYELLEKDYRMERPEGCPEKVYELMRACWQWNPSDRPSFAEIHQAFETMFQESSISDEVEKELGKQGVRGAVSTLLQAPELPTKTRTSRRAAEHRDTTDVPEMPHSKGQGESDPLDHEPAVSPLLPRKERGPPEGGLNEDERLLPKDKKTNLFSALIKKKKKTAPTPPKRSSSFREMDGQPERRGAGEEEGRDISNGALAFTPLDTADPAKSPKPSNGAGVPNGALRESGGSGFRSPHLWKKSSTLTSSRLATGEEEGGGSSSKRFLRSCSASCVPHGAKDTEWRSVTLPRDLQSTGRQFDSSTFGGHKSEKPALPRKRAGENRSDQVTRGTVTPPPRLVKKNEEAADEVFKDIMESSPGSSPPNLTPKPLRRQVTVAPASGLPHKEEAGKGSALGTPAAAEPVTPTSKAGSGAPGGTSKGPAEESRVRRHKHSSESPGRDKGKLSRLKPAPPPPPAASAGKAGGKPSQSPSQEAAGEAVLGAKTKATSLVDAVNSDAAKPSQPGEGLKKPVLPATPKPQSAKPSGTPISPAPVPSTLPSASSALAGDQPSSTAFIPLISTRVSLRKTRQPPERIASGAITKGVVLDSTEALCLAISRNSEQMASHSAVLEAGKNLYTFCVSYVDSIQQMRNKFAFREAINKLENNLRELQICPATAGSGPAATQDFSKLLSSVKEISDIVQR
# EGFR (h) = EGFR (h) (Homo sapiens, UniProt P00533); assay: EGFR human kinase assay (glass-fiber filter); type: biochemical; conditions: test concentration of 10^−6M; read-out: C4 score (inhibition of EGFR human)
# Sequence of EGFR (h) (P00533 25-1210): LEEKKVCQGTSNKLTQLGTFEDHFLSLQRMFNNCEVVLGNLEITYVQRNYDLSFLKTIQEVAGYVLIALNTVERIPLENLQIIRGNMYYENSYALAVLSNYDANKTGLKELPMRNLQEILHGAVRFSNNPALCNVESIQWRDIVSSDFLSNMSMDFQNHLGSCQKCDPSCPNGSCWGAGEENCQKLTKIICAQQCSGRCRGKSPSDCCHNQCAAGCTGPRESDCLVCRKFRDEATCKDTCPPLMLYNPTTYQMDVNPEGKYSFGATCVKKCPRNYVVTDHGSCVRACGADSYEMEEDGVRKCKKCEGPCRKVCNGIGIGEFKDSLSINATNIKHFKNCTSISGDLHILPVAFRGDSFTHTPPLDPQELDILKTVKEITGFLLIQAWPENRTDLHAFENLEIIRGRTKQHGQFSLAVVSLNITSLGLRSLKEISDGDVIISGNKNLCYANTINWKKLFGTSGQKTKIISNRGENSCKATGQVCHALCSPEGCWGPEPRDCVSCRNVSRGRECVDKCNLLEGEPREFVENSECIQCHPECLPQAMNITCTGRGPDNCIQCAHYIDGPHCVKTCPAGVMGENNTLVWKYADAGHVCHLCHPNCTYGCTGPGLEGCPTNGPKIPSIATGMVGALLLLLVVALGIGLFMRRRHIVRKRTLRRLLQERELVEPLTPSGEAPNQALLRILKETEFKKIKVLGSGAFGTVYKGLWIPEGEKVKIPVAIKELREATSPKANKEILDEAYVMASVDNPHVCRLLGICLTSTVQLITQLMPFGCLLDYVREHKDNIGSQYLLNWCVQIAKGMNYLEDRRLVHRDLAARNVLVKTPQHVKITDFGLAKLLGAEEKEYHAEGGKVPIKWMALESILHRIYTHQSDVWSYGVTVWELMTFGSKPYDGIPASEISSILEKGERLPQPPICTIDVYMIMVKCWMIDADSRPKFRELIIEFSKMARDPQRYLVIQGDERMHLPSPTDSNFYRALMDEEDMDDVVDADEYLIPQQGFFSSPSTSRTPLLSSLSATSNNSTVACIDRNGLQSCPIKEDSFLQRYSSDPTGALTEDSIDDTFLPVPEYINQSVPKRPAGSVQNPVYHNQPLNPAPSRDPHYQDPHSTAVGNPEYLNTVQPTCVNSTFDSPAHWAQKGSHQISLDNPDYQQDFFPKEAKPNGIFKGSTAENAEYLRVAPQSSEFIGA
# Summary of the method: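 Human EGFR (5-10 mU) phosphorylated 0.1 mg/ml poly(Glu, Tyr) 4:1 in 8 mM MOPS pH 7.0, 0.2 mM EDTA, 10 mM MnCl2, 10 mM MgAcetate with [γ-33P]ATP at unspecified concentration. Incubation lasted 40 minutes at room temperature, was stopped with phosphoric acid, and filter-bound 33P was counted by scintillation.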
# Lyn (h) = Lyn (h) (Homo sapiens, UniProt P07948); assay: Lyn human kinase assay (glass-fiber filter); type: biochemical; conditions: test concentration of 10^−6M; read-out: C10 score (inhibition of Lyn human)
# Summary of the method: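 Human Lyn (5-10 mU) phosphorylating poly(Glu,Tyr) 4:1 at 0.1 mg/ml with [γ-33P]ATP (concentration as required) in 50 mM Tris pH 7.5, 10 mM Mg acetate, 40 min at room temperature. Stopped with phosphoric acid; substrate-bound radioactivity counted on glass-fibre filter.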
SMILES,inhibition at 1 µM (CSK (h)) [%],inhibition at 1 µM (Fes (h)) [%],inhibition at 1 µM (Lck (h)) [%],inhibition at 1 µM (cSRC (h)) [%],inhibition at 1 µM (Fms (h)) [%],melting point [°C],inhibition at 1 µM (Yes (h)) [%],"ring closure, yield of all isomers ([1]; from N#Cc1cnc(Nc2cccc(OCCN)c2)nc1Nc1cccc(C(=O)O)c1, HBTU, 4.0 mM, 17.0 h) [%]",inhibition at 1 µM (Flt3 (h)) [%],inhibition at 1 µM (Abl (h)) [%],inhibition at 1 µM (EGFR (h)) [%],"ring closure, yield of all isomers ([1]; from NCCCCCCNC(=O)c1cccc(Nc2cc(Nc3cccc(C(=O)O)c3)ncn2)c1, PyBOP, 3.45 mM, 1.5 h) [%]",inhibition at 1 µM (Lyn (h)) [%]
"N#Cc1cnc2nc1Nc1cccc(c1)C(=O)NCCOc1cccc(c1)N2 [Compound 3, 18-oxa-2,4,8,15,25-pentaazatetracyclo[17.3.1.1˜3,7˜.1˜9,13˜]pentacosa-1(23),3,5,7(25),9,11,13(24),19,21-nonaene-6-carbonitrile, 14-oxo-]",10 to 30,10 to 30,10 to 30,10 to 30,30 to 60,> 260,10 to 30,15,30 to 60,,,,
"O=C1NCCCCCCNC(=O)c2cccc(c2)Nc2cc(ncn2)Nc2cccc1c2 [Compound 8, 2,4,6,8,15,22-hexaazatetracyclo[22.3.1.1˜3,7˜.1˜9,13˜]triaconta-1(28),3,5,7(30),9,11,13(29),24,26-nonaene-14,23-dione]",10 to 30,,,,30 to 60,307,10 to 30,,,10 to 30,10 to 30,33.7,10 to 30
"COc1ccc2cc1OCCCNCCOc1ccc(Cl)cc1Nc1cc(ncn1)N2 [Compound 13, 1H,7H-6,2:8,12-dimetheno-13,20,1,3,5,7,17-benzodioxapentaazacyclodocosine, 23-chloro-14,15,16,17,18,19-hexahydro-11-methoxy-]",,,30 to 60,10 to 30,,> 260,> 80,,,10 to 30,> 80,,> 80
